From ChEMBL document CHEMBL1151406, “An investigation of the antiviral activity of Podophyllum peltatum” (J Nat Prod, 1982) come the findings set out here.

The subject of series [1] is Measles morbillivirus. As to the kind of experiment: Antiviral activity against measles virus infected in african green monkey Vero cells assessed as plaque formation at 1 uM after 5 days by neutral red assay relative to control. The class given is functional.
Series [2] has as its system Measles morbillivirus. As to the kind of experiment: Antiviral activity against measles virus infected in african green monkey Vero cells assessed as cell rounding at 1 uM. The class given is functional.
The subject of series [3] is Vero. As to the kind of experiment: Cytotoxicity against african green monkey Vero cells assessed as cell rounding at 1 uM. In kind it is cell-based. The following applies: chlorocebus sabaeus.
Series [4] concerns Human alphaherpesvirus 1. As to the kind of experiment: Antiviral activity against HSV1 infected in african green monkey Vero cells assessed as plaque formation at 1 uM after 4 days by neutral red assay relative to control. The class given is functional.
The subject of series [5] is Measles morbillivirus. As to the kind of experiment: Antiviral activity against measles virus infected in african green monkey Vero cells assessed as inhibition of virus-induced cytopathic effect at 1 uM. The class given is functional. Details: scale not given: the % may be the effect or the level left. In general terms: Cytopathic effects are the visible damage that an infection or toxin causes in cultured cells.

The nature of series [6]: Cytotoxicity against african green monkey Vero cells assessed as cell viability at 1 uM by trypan blue exclusion assay. In kind it is cell-based. The following applies: chlorocebus sabaeus, read-out: Activity.

Turning to `COc1cc([C@@H]2c3cc4c(c(O)c3C[C@H]3COC(=O)[C@@H]32)OCO4)cc(OC)c1O`, the Activity is reported as 47.5% in series [1]; over 95% in series [2]; 5% in series [3]; 31.1% in series [4]; 25% in series [5]. Moreover, the viability at 1 µM in series [6] stood at 91.9%.
Turning to `COc1cc([C@@H]2c3cc4c(cc3[C@H](O)[C@H]3COC(=O)[C@@H]23)OCO4)cc(OC)c1OC` [AXL-1717], the Activity is 41.5% in series [1]; 5% in series [2]; 15% in series [3]; 84.4% in series [4]; 100% in series [5]. Besides, the viability at 1 µM in series [6] came out at 89.9%.
For the compound `COc1cc([C@@H]2c3cc4c(c(O)c3C[C@H]3COC(=O)[C@@H]32)OCO4)cc(OC)c1OC` [BETA-PELTATIN A], the Activity in series [1] is listed as 15.1%; in series [2] it was 50%; in series [3], 5%; in series [4], 21.7%; in series [5] it was 100%. For the same compound, the viability at 1 µM in series [6] stood at 85.4%.
Consider `COc1cc([C@@H]2c3cc4c(cc3C[C@H]3COC(=O)[C@@H]32)OCO4)cc(OC)c1OC` [DESOXYPODOPHYLLOTOXIN], for which the Activity is on record as 19.8% in series [1]; 50% in series [2]; 30% in series [3]; 16.2% in series [4]; 70% in series [5]. Moreover, the viability at 1 µM in series [6] came to 90.7%.
Regarding `COc1cc([C@@H]2c3cc4c(cc3[C@H](O)[C@H]3COC(=O)[C@H]23)OCO4)cc(OC)c1OC` [PODOFILOX], the Activity is 0.9% in series [1]; over 95% in series [2]; 80% in series [3]; 11.7% in series [4]; 25% in series [5]. Besides, the viability at 1 µM in series [6] is 91.7%.
